The results in this text go back to ChEMBL document CHEMBL3272164, “Compounds with gastric antisecretory activity. 1. Phenoxyalkylamines” (J Med Chem, 1977).

Series [1] relates to Rattus norvegicus. Description: Inhibition of histamine-induced gastric acid secretion in rat in perfused stomach preparation at 5 mg/kg, iv after 15 mins. The class given is functional. The conditions noted are these: 0.25 h.
Series [2] deals with Rattus norvegicus. Description: Inhibition of histamine-induced gastric acid secretion in rat in perfused stomach preparation at 2.5 mg/kg, iv after 15 mins. The class given is functional. The note with it: 0.25 h.
In series [3] the test system is Rattus norvegicus. Description: Toxicity in rat at 5 mg/kg, iv. The class given is organism-based. Also on record: dose 5 mg/kg, route intravenous. The conditions noted are these: in vivo.
For series [4], the system named is Rattus norvegicus. Description: Inhibition of histamine-induced gastric acid secretion in rat in perfused stomach preparation at 1.25 mg/kg, iv after 15 mins. The class given is functional. The conditions noted are these: 0.25 h.
Series [5] relates to Rattus norvegicus. Description: Inhibition of histamine-induced gastric acid secretion in rat in perfused stomach preparation at 0.078 mg/kg, iv after 15 mins. The class given is functional. The conditions noted are these: 0.25 h.
For series [6], the system named is Rattus norvegicus. Description: Inhibition of histamine-induced gastric acid secretion in iv dosed rat in perfused stomach preparation measured after 15 mins. The note with it: 0.25 h. It is filed as functional.
The subject of series [7] is Rattus norvegicus. Description: Inhibition of histamine-induced gastric acid secretion in po dosed rat in ligated stomach preparation administered 1 hr prior to the ligation of the pylorus. It is filed as functional.

The structures appear in SMILES notation.

In the series with Rattus norvegicus [1], `CCCCCCc1ccccc1OCCN(CC)CC` registered an inhibition in vivo at 5 mg/kg of 48%.
Same read-out and setting: with `CCCCCCCc1ccccc1OCCN(CC)CC` the figure was 82%; with `CCCCCCCCCc1ccccc1OCCN(CC)CC`, 25%; with `CCN(CC)CCOc1ccccc1CCCC(C)(C)C`, 50%.
In the series on Rattus norvegicus [1], `CCN(CC)CCOc1ccccc1CCC1CCCCC1` came in with an inhibition in vivo at 5 mg/kg of 74%.
Turning to `CCN(CC)CCOc1ccc(F)cc1CCC1CCCCC1`, in the series on Rattus norvegicus [1], the inhibition in vivo at 5 mg/kg came out at 95%.
Take `CCN(CC)CCOc1ccc(Cl)cc1CCC1CCCCC1`: in the series on Rattus norvegicus [1], testing at 5 mg/kg gave an inhibition in vivo of 75%.
Turning to `CCN(CC)CCOc1ccc(OC)cc1CCC1CCCCC1`, in the series on Rattus norvegicus [1], the inhibition in vivo at 5 mg/kg was determined as 78%.
On the same count and under the same terms, with `CCCCCCCc1cc(C)ccc1OCCN(CC)CC` the figure was 61%; with `CCN(CC)CCOc1ccc(C(C)=O)cc1CCC1CCCCC1`, 36%.
On the same count and under the same terms, under `CN(C)CCOc1ccccc1CCC1CCCCC1` stands 29%.
On the same count and under the same terms, under `CN(C)CCCOc1ccccc1CCC1CCCCC1` stands 42%; under `CCN(CC)CCCOc1ccccc1CCC1CCCCC1`, 66%.
In turn, `c1ccc(OCCN2CCCC2)c(CCC2CCCCC2)c1` displayed an inhibition in vivo at 5 mg/kg in the series with Rattus norvegicus [1] of 95%.
In the series on Rattus norvegicus [2], `c1ccc(OCCN2CCCCC2)c(CCC2CCCCC2)c1` came in with an inhibition in vivo at 2.5 mg/kg of 50%.
In the series with Rattus norvegicus [1], `c1ccc(OCCN2CCOCC2)c(CCC2CCCCC2)c1` showed an inhibition in vivo at 5 mg/kg of 10%.
As for `CCCN(CCC)CCOc1ccccc1CCC1CCCCC1`, the inhibition in vivo at 5 mg/kg in the series with Rattus norvegicus [1] was determined as 62%.
For the molecule `CC(C)N(CCOc1ccccc1CCC1CCCCC1)C(C)C`, 5 mg/kg produced 32% inhibition in vivo with Rattus norvegicus [1].
As to `CCCCCCCc1ccccc1OCCNCC.O=C(O)C(=O)O`, the Activity result in the series on Rattus norvegicus [3] is listed as “Toxic”.
Regarding `CCCCCCCc1ccccc1OCCCNC(C)C.O=C(O)C(=O)O`, the Activity entry with Rattus norvegicus [3] is given as “Toxic”.
`c1ccc(OCCN2CCCC2)c(CCC23CC4CC(CC(C4)C2)C3)c1` came in with an inhibition in vivo at 1.25 mg/kg with Rattus norvegicus [4] of 100%. The molecule further came in with an inhibition in vivo at 0.078 mg/kg in the series with Rattus norvegicus [5] of 83%.
As for `CN1CCN(CCOc2ccccc2CCC2CCCCC2)CC1`, the inhibition in vivo at 5 mg/kg in the series on Rattus norvegicus [1] turned out to be 0%.
Molecule `c1ccc(N2CCN(CCOc3ccccc3CCC3CCCCC3)CC2)cc1` registered an inhibition in vivo at 5 mg/kg in the series on Rattus norvegicus [1] of 0%.
For the molecule `CC(C)CN1CCN(CCOc2ccccc2CCC2CCCCC2)CC1`, the inhibition in vivo at 5 mg/kg in the series on Rattus norvegicus [1] is 51%.
Turning to `CN1CCCCC1COc1ccccc1CCC1CCCCC1` (centres undefined), in the series with Rattus norvegicus [1], the inhibition in vivo at 5 mg/kg is 100%. The molecule also came in with an inhibition in vivo at 2.5 mg/kg in the series with Rattus norvegicus [2] of 64%.
In the case of `CCN1CCCC(COc2ccccc2CCC2CCCCC2)C1` (centres undefined), the inhibition in vivo at 5 mg/kg in the series with Rattus norvegicus [1] is 57%.
In the case of `CCN(CC)CCOc1ccccc1/C=C/C1CCCCC1`, the inhibition in vivo at 1.25 mg/kg in the series on Rattus norvegicus [4] came to 82%.
Molecule `C(=C\C1CCCCC1)/c1ccccc1OCCN1CCCC1` yielded an inhibition in vivo at 1.25 mg/kg in the series on Rattus norvegicus [4] of 90%.
As to `CCCCC/C=C/c1ccccc1OCCN1CCCC1`, the inhibition in vivo at 5 mg/kg in the series on Rattus norvegicus [1] amounted to 71%.
In the series with Rattus norvegicus [1], `CCCCCC/C=C/c1ccccc1OCCN1CCCC1` displayed an inhibition in vivo at 5 mg/kg of 50%.
Molecule `C(=C\C12CC3CC(CC(C3)C1)C2)/c1ccccc1OCCN1CCCC1.Cl` gave an inhibition in vivo at 0.078 mg/kg with Rattus norvegicus [5] of 97%. For the same molecule, the ED50 in the series on Rattus norvegicus [6] came to 0.018 mg/kg; in the series with Rattus norvegicus [7], 1.5 mg/kg.
As for `C(=C/C12CC3CC(CC(C3)C1)C2)/c1ccccc1OCCN1CCCC1`, the inhibition in vivo at 0.078 mg/kg with Rattus norvegicus [5] worked out at 65%.
In the series with Rattus norvegicus [5], `CN(C)CCOc1ccccc1/C=C/C12CC3CC(CC(C3)C1)C2` (trans isomer) returned an inhibition in vivo at 0.078 mg/kg of 52%.
Consider `CN/C(=N\CCSCc1nc[nH]c1C)NC#N` [CIMETIDINE], for which the ED50 is 0.3 mg/kg in the series on Rattus norvegicus [6] and 21.5 mg/kg in the series on Rattus norvegicus [7].
